We go through one compound from patent US20080300298A1, “Honokiol Derivates For the Treatment of Proliferative Disorders” (priority 2005, published 2008).

The test system of test [1] is apoptosis-related proteins in MCF-7 cells. Briefly: Western blot of apoptosis-related proteins. Particulars: 24 h. The class given is cell-based. How it is done:
Following treatment, the cells were harvested and stained for PI and annexin V, as described in Example 9. (B) is a bar graph in which the results of three independent experiments (HNK 60 μM, 24 h) are shown. Asterix indicates p<0.05. (C) is a series of photographs of the Western blots in which MCF-7 cells were treated with HNK (20 or 40 μM, 24 h), lysed and analyzed by Western blotting for the expression of apoptosis-related proteins.
Western blot analysis: Cells were harvested and lysed for total protein extraction in a buffer containing 50 mM Tris-Cl pH 7.4, 150 mM NaCl and 2% NP-40 together with a protease inhibitor cocktail (Comp). […] Immunoactivity was detected with horseradish peroxidase-conjugated secondary antibody and visualized by Enhanced Chemiluminescence (Pierce, Rockford, Ill.). Quantification of the results was performed using AlphaImager 2000 (Alpha Innotech, San Leandro, Calif.).
HNK induces apoptosis in breast cancer cell lines. […] MCF-7 cells were treated with HNK (60 μM for six or 24 hours) and apoptosis and cell death were assessed using annexin V and PI staining (FIG. 5 A). […] Upregulation of BAX was also noticed, (85% increase at 40 μM compared to control, as analyzed by densitometry) but no significant changes in BCL-2 or BAD levels were observed. […]
(In general: Immunoblotting shows a protein as a band on a membrane.)

In test [2] the test system is human multiple myeloma (MM) cell lines. Put plainly: colorimetric (WST-8) growth assay. Type of test: cell-based. Particulars: for IC50: Homo sapiens. An excerpt:
Cells: Dexamethasone (Dex)-sensitive MM.1S (wild-type p53) and Dex-resistant MM.1R, RPMI 8226-Dox40 (doxorubicin resistant) and RPMI 8226-LR5 (melphalan resistant) human multiple myeloma (MM) cell lines were used. RPMI-8226 and U266 cells were obtained from the American Type Culture Collection (Rockville, Md.). SU-DHL-4 cells were also utilized. Fresh peripheral blood mononuclear cells (PBMNCs) were obtained from healthy subjects after informed consent. The PBMNC were separated from heparinized peripheral blood by Ficoll-Hipaque density sedimentation. BM specimens were acquired from patients with MM after obtaining informed consent and mononuclear cells were separated by Ficoll-Hipaque density sedimentation. Cells were cultured at 37° C. in RPMI 1640 containing 10% fetal bovine serum (FBS; Sigma, St Louis, Mo.), […], 100 U/mL penicillin, and 100 μg/mL streptomycin (Gibco, Grand Island, N.Y.).
Reagents: Honokiol (HNK; Calbiochem, San Diego, Calif.) was dissolved in ethanol at 20 mg/ml stock solution. Recombinant human interleukin-6 (IL-6), vascular endothelial growth factor (VEGF) and insulin-like growth factor-1 (IGF-1) (R&D Systems, Minneapolis, Minn.) were reconstituted with sterile PBS containing 0.1% FBS (IL-6 and VEGF) and 10 mM of acetic acid containing 0.1% FBS (IGF-1), respectively. Pan-caspase inhibitor z-VAD-fmk (Bachem, Bubendorf, Switzerland) was dissolved in methanol. These reagents were stored at −20° C. and diluted by media just before the use. Doxorubicin (Sigma, St Louis, Mo.) was dissolved in sterile water at the concentration of 3.45 mM. […] Absorbance readings at a wavelength of 450 nm were taken on a spectrophotometer (Molecular Devices Corp., Sunnyvale, Calif.).
HNK inhibits growth of MM cell lines. To identify the therapeutic potential of HNK, MM cell lines and normal PBMNCs were cultured at indicated concentration with HNK for 48 h, and growth was determined by calorimetric assays. […] FIGS. 6A and B show growth inhibition in MM cell lines by HNK as assessed by calorimetric assay after 48 h-culture. […]
For orientation: Tetrazolium assays rely on reduction of a dye to a coloured formazan, in cell work by metabolically active cells.

The subject of test [3] is caspases, PARP, AIF in MM.1S cells. Briefly: Western blotting of apoptotic pathway. The class given is cell-based, human. Particulars: 10 ug/ml.

≈ marks a conversion by molar mass, not a printed value. Where two headings read alike, the source gives them in different places.

By IC50 is commonly meant the concentration that inhibits the measured activity by half.

As to `C=CCc1ccc(O)c(-c2ccc(O)c(CC=C)c2)c1` [HNK, Honokiol], the “Upregulation of BAX (densitometry), increase compared to control” value in test [1] (MCF-7, 40 μM) came to 85%. In addition, the “PARP and caspase 8 levels” value in test [1] (MCF-7, 20 or 40 μM) was “degradation of poly (ADP-ribose) polymerase (PARP) and decreased levels of caspase 8”. Also, the IC50 in test [2] (drug sensitive RPM18226, U266 and MM.1S cells, 48 h, read-out: fifty percent inhibition (IC50) at 48 h) is 8 to 10 µg/mL (≈ 30 to 37.5 µM); in test [2] (including Melphalan-, Doxorubicin- and Dex-resistant cell lines, read-out: IC50 of growth inhibition of MM cell lines), under 10 µg/mL. In addition, the “growth of drug resistant cell lines” value in test [2] (RPM18226-Dox40, RPM18226-LR5 and MM.1R cells, 48 h) is listed as “IC50 values similar to parental drug-sensitive cell lines”. Further, the “cleavage of caspases and PARP” value in test [3] (12 and 24 h) is “Cleavage of caspases 7, 8, 9 and PARP were induced”. Besides, in test [3] (24 h), the “release of AIF” value is listed as “induced release of mitochondrial pro-apoptotic protein AIF to cytosol”.
